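Assay format: 96-well plates, 48-hour exposure. GI50 is the concentration that inhibits growth by half.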 Activity calls are given as the source filed them. No stated cut-off is given here; in the data, active = GI50 up to about 1.1 µM and inactive = higher. Bounds are passed on as bounds.

Among the test systems are A498; HL-60; SF-268; HOP-62; OVCAR-5; MDA-MB-435; NCI-H226; UACC-257; HCC 2998; M14; RPMI-8226; ACHN; OVCAR-3; LOX IMVI; Malme-3M; SK-MEL-5; NCI-H460; SK-MEL-28; EKVX; SK-OV-3.
Holding throughout (assay): DTP human tumour cell line panel, 48 h

In general, GI50 refers to the concentration at which growth is held to half of that of the control. Regarding `CCOc1ccc(C2c3[nH]c4ccccc4c3CCN2C(=O)c2cccs2)cc1` (stereo not given), the GI50 is 7.4 µM (inactive) in the assay on A498; 9.04 µM (inactive) with HL-60; 52.4 µM (inactive) in the assay with SF-268; 4.67 µM (inactive) in the assay on HOP-62; > 100 µM (inactive) in the assay on OVCAR-5; 6.61 µM (inactive) in the assay on MDA-MB-435. Moreover, the GI50 in the assay with NCI-H226 is 3.06 µM (inactive); in the assay on UACC-257 it was 17.3 µM (inactive); with HCC 2998, 2.08 µM (inactive); in the assay on M14, 37.7 µM (inactive); with RPMI-8226, 5.41 µM (inactive); in the assay on ACHN it was 44.5 µM (inactive). In addition, the GI50 in the assay on OVCAR-3 is 9.89 µM (inactive); in the assay on LOX IMVI it was 6.52 µM (inactive); in the assay with Malme-3M, 88.5 µM (inactive); in the assay on SK-MEL-5, 5.75 µM (inactive); in the assay with NCI-H460, 2.2 µM (inactive); in the assay with SK-MEL-28 it was > 100 µM (inactive). Further, the GI50 was 7.35 µM (inactive) in the assay on EKVX and > 100 µM (inactive) in the assay on SK-OV-3.

For `CCCCCCCC(=O)O[C@H]1[C@H]2[C@@H](CC1(C)C)C(=O)[C@]13O[C@H]1C(=O)[C@]1(CO1)[C@]23C`, the GI50 in the assay on A498 was 9.16 µM (inactive); in the assay with HL-60, 0.124 µM (active); in the assay with SF-268, 6.01 µM (inactive); with HOP-62 it was 17.5 µM (inactive); in the assay on OVCAR-5, 11.1 µM (inactive); with MDA-MB-435 it was 24.2 µM (inactive). Moreover, the GI50 in the assay with NCI-H226 is 13.9 µM (inactive); in the assay on UACC-257, 2.85 µM (inactive); in the assay on HCC 2998, 5.96 µM (inactive); in the assay on M14, 3.92 µM (inactive); in the assay with RPMI-8226 it was 0.556 µM (active); with ACHN it was 2 µM (inactive). For the same compound, the GI50 in the assay with OVCAR-3 was 2.91 µM (inactive); with LOX IMVI it was 1.34 µM (inactive); in the assay with Malme-3M it was 3.29 µM (inactive); in the assay on SK-MEL-5, 4.06 µM (inactive); with NCI-H460, 5.71 µM (inactive); with SK-MEL-28 it was 3.38 µM (inactive). The GI50 in the assay with EKVX is 3.66 µM (inactive); with SK-OV-3, 34.3 µM (inactive).

With `CC(C)(C)c1ccc(-c2nnc(SCc3ccc(Cl)cc3)n2-c2cccc(C(F)(F)F)c2)cc1`, the GI50 in the assay with A498 is 31.1 µM (inactive); in the assay with HL-60, 0.0867 µM (active); with SF-268, 25 µM (inactive); in the assay with HOP-62, 34.3 µM (inactive); with OVCAR-5, 32.8 µM (inactive); with MDA-MB-435, 11.9 µM (inactive). The GI50 was 19.7 µM (inactive) with NCI-H226; 9.95 µM (inactive) with UACC-257; 11.2 µM (inactive) with HCC 2998; 15 µM (inactive) in the assay on M14; 4.61 µM (inactive) in the assay with RPMI-8226; 20.3 µM (inactive) in the assay with ACHN. Further, the GI50 with OVCAR-3 is 1.87 µM (inactive); in the assay with LOX IMVI, 31.3 µM (inactive); in the assay with Malme-3M, 29.4 µM (inactive); in the assay with SK-MEL-5, 14 µM (inactive); with NCI-H460, 7.23 µM (inactive); with SK-MEL-28, > 78.9 µM (inactive). Also, the GI50 is 8.51 µM (inactive) in the assay on EKVX and 8.32 µM (inactive) with SK-OV-3.

For the compound `COc1ccc2/c(=C/c3ccc(N(C)C)cc3)c3cc(-c4ccccc4)[n+](C)n3c2c1`, the 50% growth inhibitory concentration (GI50) is 0.408 µM (active) in the assay with A498; 0.0218 µM (active) in the assay on HL-60; 0.292 µM (active) in the assay on SF-268; 0.345 µM (active) with HOP-62; 0.52 µM (active) in the assay with OVCAR-5; 0.0875 µM (active) in the assay with MDA-MB-435. The concentration for 50% growth inhibition (GI50) was 0.265 µM (active) with NCI-H226; 0.135 µM (active) with UACC-257; 0.115 µM (active) with HCC 2998; 0.139 µM (active) in the assay with M14; 0.0263 µM (active) in the assay with RPMI-8226; 0.405 µM (active) with ACHN. The concentration for 50% growth inhibition (GI50) is 0.0834 µM (active) in the assay on OVCAR-3; 0.161 µM (active) in the assay with LOX IMVI; 0.191 µM (active) in the assay on Malme-3M; 0.0392 µM (active) in the assay on SK-MEL-5; 0.245 µM (active) with NCI-H460; 0.164 µM (active) with SK-MEL-28. Moreover, the 50% growth inhibitory concentration (GI50) in the assay on EKVX was 0.817 µM (active); with SK-OV-3, 0.282 µM (active).

Consider `CC(=O)O[C@H]1C#C/C=C\C#CC[C@@H]2C(=O)N(C(=O)OC(C)(C)C)[C@@H]12`, for which the GI50 with A498 was 33.4 µM (inactive); with HL-60, 2.45 µM (inactive); in the assay with SF-268, 16.8 µM (inactive); in the assay with HOP-62, 7.11 µM (inactive); in the assay on OVCAR-5, > 100 µM (inactive); in the assay on MDA-MB-435, 71.6 µM (inactive). Also, the GI50 in the assay with NCI-H226 was 24.3 µM (inactive); in the assay with UACC-257, 28.4 µM (inactive); in the assay with HCC 2998, 19.5 µM (inactive); in the assay with M14, 28.3 µM (inactive); in the assay on RPMI-8226, 16.2 µM (inactive); in the assay on ACHN it was 4 µM (inactive). The GI50 was 41.1 µM (inactive) with OVCAR-3; 13.1 µM (inactive) with LOX IMVI; 7.87 µM (inactive) in the assay on Malme-3M; 18.2 µM (inactive) with SK-MEL-5; 0.25 µM (active) with NCI-H460; 71.4 µM (inactive) in the assay on SK-MEL-28. Also, the GI50 with EKVX was 85.7 µM (inactive); in the assay with SK-OV-3, 62.4 µM (inactive).

Take `O=[N+]([O-])c1ccc(O)c(/C=N/NC(=S)N2CCCCC2)c1`: the GI50 with A498 was 9.12 µM (inactive); with HL-60 it was 0.282 µM (active); with SF-268 it was 2.45 µM (inactive); in the assay with HOP-62 it was 5.74 µM (inactive); in the assay with OVCAR-5, 16 µM (inactive); with MDA-MB-435 it was 7.43 µM (inactive). Moreover, the GI50 in the assay with NCI-H226 is 1.55 µM (inactive); in the assay with UACC-257, 7.16 µM (inactive); with HCC 2998 it was 7.73 µM (inactive); with M14, 3.81 µM (inactive); with RPMI-8226, 2.79 µM (inactive); in the assay with ACHN it was 1.84 µM (inactive). The GI50 was 2.24 µM (inactive) in the assay on OVCAR-3; 1.57 µM (inactive) with LOX IMVI; 1.64 µM (inactive) in the assay with Malme-3M; 3.7 µM (inactive) in the assay on SK-MEL-5; 4.81 µM (inactive) in the assay with NCI-H460; 3.71 µM (inactive) in the assay on SK-MEL-28. The GI50 in the assay on EKVX was 2.42 µM (inactive); with SK-OV-3, 4.8 µM (inactive).

`Cn1c2ccc(F)cc2c2ccc3c(c21)C(=O)C=CC3=O`: the GI50 was 55.7 µM (inactive) in the assay with A498; 0.598 µM (active) with HL-60; 21 µM (inactive) in the assay on SF-268; > 66.5 µM (inactive) in the assay with HOP-62; 43.6 µM (inactive) with OVCAR-5; 16.4 µM (inactive) with MDA-MB-435. The GI50 in the assay with NCI-H226 was 20.3 µM (inactive); with UACC-257 it was 9.86 µM (inactive); in the assay on HCC 2998, 26.9 µM (inactive); in the assay on M14, 12.1 µM (inactive); with RPMI-8226, 6.93 µM (inactive); in the assay on ACHN, 5.85 µM (inactive). Further, the GI50 with OVCAR-3 was 7.21 µM (inactive); in the assay on LOX IMVI, 6.17 µM (inactive); in the assay with Malme-3M, 8.71 µM (inactive); in the assay with SK-MEL-5, 16.9 µM (inactive); with NCI-H460 it was > 57.3 µM (inactive); with SK-MEL-28 it was 13.8 µM (inactive). Besides, the GI50 with EKVX was 16 µM (inactive); in the assay with SK-OV-3, 61 µM (inactive).

For the compound `O=C(Oc1cccnc1)c1cc2cc(CCl)ccc2oc1=O`, the GI50 in the assay with A498 was 48.5 µM (inactive); in the assay on HL-60, 22.8 µM (inactive); in the assay on SF-268 it was 20.8 µM (inactive); with HOP-62, 76.2 µM (inactive); in the assay with OVCAR-5, 22.6 µM (inactive); in the assay on MDA-MB-435 it was 25.9 µM (inactive). Also, the GI50 was 66.1 µM (inactive) in the assay with NCI-H226; 30.6 µM (inactive) in the assay on UACC-257; 57.7 µM (inactive) in the assay with HCC 2998; 21.4 µM (inactive) with M14; 24.5 µM (inactive) with RPMI-8226; 18.9 µM (inactive) in the assay with ACHN. The GI50 with OVCAR-3 is 25.5 µM (inactive); in the assay on LOX IMVI, 21 µM (inactive); with Malme-3M it was 22.7 µM (inactive); in the assay with SK-MEL-5 it was 44.6 µM (inactive); with NCI-H460, 31 µM (inactive); in the assay with SK-MEL-28, 32.4 µM (inactive). In addition, the GI50 in the assay on EKVX is 21.5 µM (inactive); with SK-OV-3, > 100 µM (inactive).

These data come from ChEMBL document CHEMBL1201862, “PubChem BioAssay data set” (2004).
